The values below come from patent US11254686B1 (Corvus Pharmaceuticals, Inc., priority 2017, dated 2022).

The nature of series [1]: Hepatocyte (Hep) intrinsic clearance, rat. The class given is in vitro ADME. The conditions noted are these: hepatocytes.
Series [2] addresses adenosine A1 receptor (Homo sapiens (Human), UniProt P30542). Put plainly: A1 cAMP IC50 assay (Table 1). The class given is biochemical.
The nature of series [3]: Hepatocyte (Hep) intrinsic clearance, human. The format is in vitro ADME. To be noted: hepatocytes.
In series [4] the target is CYP2D6 (Homo sapiens (Human), UniProt P10635). Put plainly: CYP450 inhibition at 10 μM, CYP2D6. The class given is in vitro ADME. To be noted: read-out: CYP 450 % INH @ 10 μM.
Sequence of CYP2D6 (P10635 whole entry): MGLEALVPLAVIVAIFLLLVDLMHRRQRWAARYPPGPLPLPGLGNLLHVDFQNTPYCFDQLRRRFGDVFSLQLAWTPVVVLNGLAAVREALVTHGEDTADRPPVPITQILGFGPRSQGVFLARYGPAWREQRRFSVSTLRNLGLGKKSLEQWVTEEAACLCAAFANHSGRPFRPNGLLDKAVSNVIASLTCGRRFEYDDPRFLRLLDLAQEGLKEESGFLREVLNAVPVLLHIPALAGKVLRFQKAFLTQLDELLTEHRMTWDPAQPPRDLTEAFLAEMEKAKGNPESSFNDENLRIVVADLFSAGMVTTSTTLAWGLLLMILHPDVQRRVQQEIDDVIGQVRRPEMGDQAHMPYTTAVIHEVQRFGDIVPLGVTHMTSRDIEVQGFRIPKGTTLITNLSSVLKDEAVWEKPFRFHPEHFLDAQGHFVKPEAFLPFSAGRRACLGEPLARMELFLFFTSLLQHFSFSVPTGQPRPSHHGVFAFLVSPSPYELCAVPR
The target of series [5] is adenosine A2A receptor (Homo sapiens (Human), UniProt P29274). Put plainly: Adenosine receptor activity assay (Table 1), A2A activity. The format is biochemical. The conditions noted are these: read-out: Ave A2A cAMP IC50.
Sequence of adenosine A2A receptor (P29274 whole entry): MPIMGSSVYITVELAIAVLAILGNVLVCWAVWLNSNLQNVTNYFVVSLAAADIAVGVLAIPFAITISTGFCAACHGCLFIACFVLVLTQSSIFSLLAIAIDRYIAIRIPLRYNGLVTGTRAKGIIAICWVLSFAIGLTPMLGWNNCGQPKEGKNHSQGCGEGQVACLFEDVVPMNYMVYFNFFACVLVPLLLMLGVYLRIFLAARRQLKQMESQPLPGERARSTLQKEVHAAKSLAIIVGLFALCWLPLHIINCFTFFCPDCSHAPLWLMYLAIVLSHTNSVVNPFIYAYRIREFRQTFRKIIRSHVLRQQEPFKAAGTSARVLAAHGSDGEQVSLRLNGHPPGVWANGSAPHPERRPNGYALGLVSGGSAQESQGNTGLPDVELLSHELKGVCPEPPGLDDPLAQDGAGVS
Series [6] can be described thus: Liver microsome (LM) intrinsic clearance, rat. The class given is in vitro ADME. (In general: Liver microsomes are vesicles of endoplasmic reticulum, rich in cytochrome P450 enzymes.)
Series [7] has as its target adenosine A3 receptor (Homo sapiens (Human), UniProt P0DMS8). Nature of the series: A3 cAMP IC50 assay (Table 1). The class given is biochemical.
Series [8] is described as follows: Liver microsome (LM) intrinsic clearance, human. The class given is in vitro ADME.
For series [9], the target named is adenosine A2B receptor (Homo sapiens (Human), UniProt P29275). Nature of the series: Adenosine receptor activity assay (Table 1), A2B activity. The class given is biochemical. To be noted: for Ratio: A2A activity to A2B activity (A2A/A2B); for IC50: read-out: Ave A2B cAMP IC50.
Sequence of adenosine A2B receptor (P29275 whole entry): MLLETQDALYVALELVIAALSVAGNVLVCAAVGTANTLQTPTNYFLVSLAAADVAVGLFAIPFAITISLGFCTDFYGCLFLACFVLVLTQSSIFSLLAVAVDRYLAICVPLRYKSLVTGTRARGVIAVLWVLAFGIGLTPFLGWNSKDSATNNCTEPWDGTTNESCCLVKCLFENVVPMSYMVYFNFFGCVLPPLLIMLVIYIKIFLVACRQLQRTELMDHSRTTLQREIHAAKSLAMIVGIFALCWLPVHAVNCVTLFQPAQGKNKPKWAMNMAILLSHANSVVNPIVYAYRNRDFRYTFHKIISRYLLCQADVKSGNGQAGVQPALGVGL
Series [10] deals with CYP3A4 (Homo sapiens (Human), UniProt P08684). Put plainly: CYP450 inhibition at 10 μM, CYP3A4. The conditions noted are these: for inhibition at 10 µM: human, read-out: CYP 450 % INH @ 10 μM. The format is in vitro ADME.
Sequence of CYP3A4 (P08684 whole entry): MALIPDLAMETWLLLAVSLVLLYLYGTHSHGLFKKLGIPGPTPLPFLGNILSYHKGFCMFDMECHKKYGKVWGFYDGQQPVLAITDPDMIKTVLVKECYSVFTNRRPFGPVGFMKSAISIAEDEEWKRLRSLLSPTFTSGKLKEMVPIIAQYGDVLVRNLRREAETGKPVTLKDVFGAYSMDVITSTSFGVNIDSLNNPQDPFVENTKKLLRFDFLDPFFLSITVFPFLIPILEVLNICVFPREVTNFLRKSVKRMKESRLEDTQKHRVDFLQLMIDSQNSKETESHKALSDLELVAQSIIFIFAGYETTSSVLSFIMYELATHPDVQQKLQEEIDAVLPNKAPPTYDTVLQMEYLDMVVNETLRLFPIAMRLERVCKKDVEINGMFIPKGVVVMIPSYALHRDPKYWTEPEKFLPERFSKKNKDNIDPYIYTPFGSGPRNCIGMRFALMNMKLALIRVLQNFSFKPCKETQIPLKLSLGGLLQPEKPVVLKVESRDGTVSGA

As a reminder, the hepatocyte CLint is a measure of how fast metabolising enzymes remove a compound, apart from limits set by blood flow. A low value points to greater metabolic stability. In general, IC50 refers to the midpoint of a concentration-inhibition curve.

Sequence of adenosine A3 receptor (P0DMS8 whole entry): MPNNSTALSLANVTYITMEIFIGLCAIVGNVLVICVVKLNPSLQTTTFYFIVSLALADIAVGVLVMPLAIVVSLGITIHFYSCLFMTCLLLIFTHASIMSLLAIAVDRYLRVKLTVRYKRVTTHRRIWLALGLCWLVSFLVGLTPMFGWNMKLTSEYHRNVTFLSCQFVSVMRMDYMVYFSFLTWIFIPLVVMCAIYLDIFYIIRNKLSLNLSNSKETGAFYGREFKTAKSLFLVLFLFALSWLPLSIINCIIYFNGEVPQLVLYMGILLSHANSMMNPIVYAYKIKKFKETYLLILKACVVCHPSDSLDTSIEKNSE
Sequence of adenosine A1 receptor (P30542 whole entry): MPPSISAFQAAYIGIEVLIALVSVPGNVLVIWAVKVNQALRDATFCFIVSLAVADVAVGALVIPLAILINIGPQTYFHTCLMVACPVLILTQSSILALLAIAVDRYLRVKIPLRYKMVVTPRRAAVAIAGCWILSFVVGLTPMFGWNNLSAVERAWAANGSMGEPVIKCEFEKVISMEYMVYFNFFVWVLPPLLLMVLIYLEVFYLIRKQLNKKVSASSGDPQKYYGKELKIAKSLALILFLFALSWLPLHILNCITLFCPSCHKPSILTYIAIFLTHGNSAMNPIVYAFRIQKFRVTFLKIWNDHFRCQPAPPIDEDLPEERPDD

`C[C@H](Nc1nc(C(=O)N2CCC2)c2sccc2n1)c1cccnc1` [Example Z2, (S)-Azetidin-1-yl(2-((1-(pyridin-3-yl)ethyl)amino)thieno[3,2-d]pyrimidin-4-yl)methanone]: the hepatocyte CLint came out at 37.7 µL/min/1e6 cells in series [1] and 9.27 µL/min/1e6 cells in series [3]. Besides, the half-inhibitory concentration (IC50) was above 500 nM in series [2], 100 to 500 nM in series [5], above 500 nM in series [7] and below 10 nM in [9]. The inhibition at 10 µM is 38% in series [4] and 66% in series [10]. The “LM CLint” value in [6] was found to be 27.86 μL/min/mg/protein; in [8], 23.61 μL/min/mg/protein. In addition, the Ratio in series [9] amounted to 31.36.

As for `CO[C@@H]1CCN(C(=O)c2nc(N[C@@H](C)c3cccnc3)nc3ccsc23)C1` [Example Z19, ((R)-3-Methoxypyrrolidin-1-yl)(2-(((S)-1-(pyridin-3-yl)ethyl)amino)thieno[3,2-d]pyrimidin-4-yl)methanone], the intrinsic clearance (hepatocyte CLint) in [1] worked out at 83.4 µL/min/1e6 cells; in [3], 12.9 µL/min/1e6 cells. The IC50 in series [2] is above 500 nM; in [5], 10 to 50 nM; in series [7], 50 to 100 nM; in [9], 10 to 50 nM. Besides, the inhibition at 10 µM in series [4] amounted to 51%; in series [10], 42%. Moreover, the “LM CLint” value in [6] amounted to 63.06 μL/min/mg/protein; in series [8], 17.60 μL/min/mg/protein. Besides, in series [9], the Ratio is listed as 1.37.

For the molecule `O=C(c1nc(NCc2cncc(F)c2)nc2ccsc12)N1CC[C@@H](F)C1` [Example Z60, (R)-(2-(((5-Fluoropyridin-3-yl)methyl)amino)thieno[3,2-d]pyrimidin-4-yl)(3-fluoropyrrolidin-1-yl)methanone], the values for the hepatocyte CLint in series [1] and in series [3] were 63.1 µL/min/1e6 cells and 22.8 µL/min/1e6 cells, respectively. In addition, the 50% inhibitory concentration (IC50) in series [2] was above 500 nM; in [5] it was 100 to 500 nM; in series [7] it was above 500 nM; in series [9], below 10 nM. Further, the inhibition at 10 µM in series [4] turned out to be 11%; in [10], 65%. Moreover, the “LM CLint” value in series [6] amounted to 46.03 μL/min/mg/protein; in [8] it was 34.26 μL/min/mg/protein. The Ratio in series [9] came to 66.23.

For the molecule `C[C@H](Nc1nc(C(=O)N2CC[C@H](F)C2)c2sccc2n1)c1ccccn1` [Example Z53, ((S)-3-Fluoropyrrolidin-1-yl)(2-(((S)-1-(pyridin-2-yl)ethyl)amino)thieno[3,2-d]pyrimidin-4-yl)methanone], the hepatocyte CLint in series [1] came to 42.7 µL/min/1e6 cells; in series [3] it was 10.9 µL/min/1e6 cells. For the same molecule, the inhibition at 10 µM in [4] was 0%; in series [10] it was 10%. Also, the IC50 in series [5] was 50 to 100 nM; in series [9], below 10 nM. Besides, the “LM CLint” value in series [6] was determined as 14.92 μL/min/mg/protein; in series [8] it was 13.51 μL/min/mg/protein. In addition, the Ratio in series [9] is listed as 7.15.

`O=C(c1nc(NCc2cncc(F)c2)nc2ccsc12)N1CC[C@@H](O)C1` [Example Z66, (R)-(2-(((5-Fluoropyridin-3-yl)methyl)amino)thieno[3,2-d]pyrimidin-4-yl)(3-hydroxypyrrolidin-1-yl)methanone]: the hepatocyte CLint in series [1] turned out to be 21.2 µL/min/1e6 cells; in [3], 7.1 µL/min/1e6 cells. The inhibition at 10 µM in [4] stood at 4%; in series [10] it was 24%. Also, the half-inhibitory concentration (IC50) in [5] lay within 100 to 500 nM; in series [9], 10 to 50 nM. Moreover, the “LM CLint” value in [6] is 14.07 μL/min/mg/protein; in series [8], 16.45 μL/min/mg/protein. Moreover, the Ratio in series [9] came out at 15.71.

Consider `C[C@H](Nc1nc(C(=O)N2CC(F)(F)C2)c2sccc2n1)c1cccnc1` [Example Z32, (S)-(3,3-Difluoroazetidin-1-yl)(2-((1-(pyridin-3-yl)ethyl)amino)thieno[3,2-d]pyrimidin-4-yl)methanone], for which the intrinsic metabolic clearance (hepatocyte CLint) in series [1] came out at 76.2 µL/min/1e6 cells; in [3] it was 63.2 µL/min/1e6 cells. The 50% inhibitory concentration (IC50) is above 500 nM in series [2], 100 to 500 nM in series [5], above 500 nM in [7] and 10 to 50 nM in series [9]. Also, the inhibition at 10 µM in series [4] came to 7%; in series [10] it was 49%. The “LM CLint” value stood at 33.25 μL/min/mg/protein in series [6] and 51.28 μL/min/mg/protein in [8]. Further, the Ratio in [9] is 6.64.

In the case of `CO[C@H]1CCN(C(=O)c2nc(N[C@@H](C)c3cccnc3)nc3ccsc23)C1` [Example Z18, ((S)-3-Methoxypyrrolidin-1-yl)(2-(((S)-1-(pyridin-3-yl)ethyl)amino)thieno[3,2-d]pyrimidin-4-yl)methanone], the intrinsic clearance (hepatocyte CLint) stood at 68.4 µL/min/1e6 cells in [1] and 12.3 µL/min/1e6 cells in series [3]. Also, the IC50 is above 500 nM in [2], 50 to 100 nM in series [5], above 500 nM in series [7] and 50 to 100 nM in series [9]. Besides, the inhibition at 10 µM in [4] is 44%; in [10] it was 52%. Further, the “LM CLint” value in [6] turned out to be 44.15 μL/min/mg/protein; in series [8], 14.28 μL/min/mg/protein. Further, the Ratio in series [9] was 0.88.

On to `O=C(c1nc(NCc2cncc(F)c2)nc2ccsc12)N1CCC1` [Example Z61, Azetidin-1-yl(2-(((5-fluoropyridin-3-yl)methyl)amino)thieno[3,2-d]pyrimidin-4-yl)methanone], for which the intrinsic metabolic clearance (hepatocyte CLint) in series [1] came out at 44.9 µL/min/1e6 cells; in series [3], 15.4 µL/min/1e6 cells. Moreover, the IC50 was above 500 nM in series [2], 100 to 500 nM in series [5], above 500 nM in series [7] and below 10 nM in [9]. Further, the inhibition at 10 µM came out at 10% in [4] and 38% in series [10]. Besides, the figures for the “LM CLint” value in [6] and in series [8] were 44.58 μL/min/mg/protein and 33.16 μL/min/mg/protein, respectively. The Ratio in series [9] worked out at 84.42.

As for `O=C(c1nc(NCc2cncc(F)c2)nc2ccsc12)N1CCCC1` [Example Z21, (2-(((5-Fluoropyridin-3-yl)methyl)amino)thieno[3,2-d]pyrimidin-4-yl)(pyrrolidin-1-yl)methanone], the hepatocyte CLint in [1] came out at 71.2 µL/min/1e6 cells; in series [3], 23.1 µL/min/1e6 cells. Moreover, the inhibition at 10 µM in series [4] was 4%; in [10], 45%. In [5], the half-inhibitory concentration (IC50) was in the range of 100 to 500 nM. Moreover, the “LM CLint” value in series [6] is reported as 89.01 μL/min/mg/protein; in [8], 43.24 μL/min/mg/protein. In addition, the “CYP3A4 IC50” value in series [10] worked out at 12400 nM.

On to `Cc1cncc(CNc2nc(C(=O)N3CCCC3)c3sccc3n2)c1` [Example Z50, (2-(((5-Methylpyridin-3-yl)methyl)amino)thieno[3,2-d]pyrimidin-4-yl)(pyrrolidin-1-yl)methanone], for which the results for the hepatocyte CLint in series [1] and in series [3] were 149 µL/min/1e6 cells and 49 µL/min/1e6 cells, respectively. Besides, the inhibition at 10 µM in series [4] came to 32%; in series [10], 79%. The half-maximal inhibitory concentration (IC50) in series [5] was above 500 nM; in [9], 10 to 50 nM. Further, the “LM CLint” value in series [6] amounted to 129.90 μL/min/mg/protein; in series [8], 126.01 μL/min/mg/protein. Besides, the Ratio in series [9] is 5.23.

Consider `C[C@H](Nc1nc(C(=O)N2CC[C@H](F)C2)c2sccc2n1)c1cccnc1` [Example Z9, ((S)-3-Fluoropyrrolidin-1-yl)(2-(((S)-1-(pyridin-3-yl)ethyl)amino)thieno[3,2-d]pyrimidin-4-yl)methanone], for which the intrinsic clearance (hepatocyte CLint) is 70.1 µL/min/1e6 cells in series [1] and 11.4 µL/min/1e6 cells in series [3]. For the same molecule, the results for the inhibition at 10 µM in series [4] and in series [10] were 20% and 71%, respectively. Moreover, the IC50 lay within 50 to 100 nM in series [5] and 10 to 50 nM in series [9]. In addition, the “LM CLint” value in series [6] is recorded as 28.41 μL/min/mg/protein; in series [8] it was 15.83 μL/min/mg/protein. The Ratio in series [9] is reported as 2.55.

Turning to `C[C@H](Nc1nc(C(=O)N2CCC(F)(F)C2)c2sccc2n1)c1ccccn1` [Example Z96, (S)-(3,3-Difluoropyrrolidin-1-yl)(2-((1-(pyridin-2-yl)ethyl)amino)thieno[3,2-d]pyrimidin-4-yl)methanone], the hepatocyte CLint is 40.7 µL/min/1e6 cells in series [1] and 16.8 µL/min/1e6 cells in series [3]. Further, the 50% inhibitory concentration (IC50) in series [2] was above 500 nM; in series [5] it was 100 to 500 nM; in series [7], above 500 nM; in series [9] it was 10 to 50 nM. For the same molecule, in series [9], the Ratio was found to be 5.59. The inhibition at 10 µM in series [10] is 0%.

Take `CCNC(=O)c1nc(N[C@@H](C)c2ccccn2)nc2ccsc12` [Example Z111, (S)—N-Ethyl-2-((1-(pyridin-2-yl)ethyl)amino)thieno[3,2-d]pyrimidine-4-carboxamide]: the hepatocyte CLint is 45.4 µL/min/1e6 cells in [1] and 8.64 µL/min/1e6 cells in series [3]. Besides, the half-inhibitory concentration (IC50) in series [2] is above 500 nM; in series [5], 50 to 100 nM; in series [7], above 500 nM; in [9], below 10 nM. Further, in series [9], the Ratio is 15.70. Besides, the inhibition at 10 µM in [10] is 19.9%.

In the case of `O=C(c1nc(NCc2cncc(F)c2)nc2ccsc12)N1CC(F)(F)C1` [Example Z97, (3,3-Difluoroazetidin-1-yl)(2-(((5-fluoropyridin-3-yl)methyl)amino)thieno[3,2-d]pyrimidin-4-yl)methanone], the hepatocyte CLint is 61.4 µL/min/1e6 cells in series [1] and 41.3 µL/min/1e6 cells in [3]. For the same molecule, the IC50 in series [2] was above 500 nM; in series [5] it was above 500 nM; in series [7] it was above 500 nM; in [9] it was 10 to 50 nM. For the same molecule, the Ratio in [9] was 30.97. For the same molecule, the inhibition at 10 µM in series [10] came out at 53.8%.
